Laboratory results as given in patent US20020132019A1, “Sterol fractions of Nigella sativa L. seeds” (priority 2000, published 2002).

Legend:
Assay type in all cases: in vivo
[1] = test system: guinea pigs exposed to histamine aerosol (0.25%); assay: Prophylactic anti-asthmatic effect: pre-convulsive time on histamine aerosol (0.25%); settings: 50 :g/kg, treated for 21 days, histamine 0.25% aerosol
Experimental: This example explains an in vivo study to evaluate the prophylactic (protective) anti-asthmatic effect of the Nigella sativa L. sterol fraction. The prophylactic anti-asthmatic effect was evaluated in vivo by measurement of the pre-convulsive time in guinea pigs exposed to histamine aerosol (0.25%).
Guinea pigs were divided into three groups with 8 animals per group. The first group received saline injections to serve as negative control. The second group received ketotifen, which is the standard treatment to serve as positive control. The third group received 200 mg/kg each of the Nigella sativa L. sterol fraction of the present invention.
Animals in all groups were treated for 21 days after which time they were exposed to histamine (0.25 %) aerosol and the preconvulsive time was recorded.

[2] = test system: ova albumin sensitized guinea pigs; assay: Tachypnea protective effect in ova albumin sensitized animals; settings: 50 :g/kg, treated for 21 days, ova albumin inhalation
Experimental: This experiment was an in vivo study to evaluate the tachypnea (protective) effect of the Nigella sativa L. sterol fraction of the present invention. The second protocol involved sensitized animals. Animals were sensitized by injecting ova albumin in two doses 100 mg. each (S.C. and I.P., simultaneously). Animals were resensitized 15 days later. Guinea pigs were divided into three groups with 8 animals per group. The first group received a saline injection to serve as negative control. The second group received ketotifen which is the standard treatment to serve as positive control. The third group received 200 mg/kg each of the Nigella sativa L. sterol fraction of the present invention. Animals in all groups were treated for 21 days following which they were exposed to ova albumin inhalation and time to onset of tachypnea was recorded as shown in the table below.

[3] = test system: histamine-induced bronchospasm in guinea pigs; assay: Prophylactic anti-allergic effect: protection against histamine aerosol (1%) induced bronchospasm; settings: 239 mg/kg i.p.
Experimental: The prophylactic anti-allergic effects of the Nigella sativa L. sterol fraction were evaluated in guinea pigs (300-400 grams). Animals were divided into 5 groups (10 animals each) and treated i.p. As follows:
First: Animals treated by saline.
Second: Animals treated by diphenhydramine (239 mg/kg/day).
Third: Animals treated by the Nigella sativa L. sterol fraction (50 mg/kg).
Animals treated by the Nigella sativa L. sterol fraction (100 mg/kg).
Fifth: Animals treated by the Nigella sativa L. sterol fraction (150mg/kg).
Animals were exposed 30 minutes after their i.p. Injection of diphenhydramine and the Nigella sativa L. sterol fraction (50,100 and 150 mg/kg) to histamine aerosol (1% for 3 minutes to induce bronchospasm or tachypnea) (Armitage et al, Br. J. Pharmacol., 16:59-76 (1961)). The percent protection against bronchospasm and loss of rightening after 30, 60 and 90 minutes was calculated (Dawson and Sweatman, Br. J. Pharmacol, 71:387-398 (1980)).

## CN1CCC(=C2c3ccccc3CC(=O)c3sccc32)CC1 [ketotifen]
[1]
  % of Prophylaxis (Protection): 82.85%
[2]
  % of Prophylaxis: 44.4%

## CN(C)CCOC(c1ccccc1)c1ccccc1 [Diphenhydramine, diphenhydramine]
[3]; 30 minutes
  % protection 30 minutes: 100%
[3]; 60 minutes
  % protection 60 minutes: 100%
[3]; 90 minutes
  % protection 90 minutes: 90%
